Columns and labels:
[1] = tested on: Pyricularia oryzae Carvara KA301; test: whole plant or invertebrate; type: in vivo; settings: Pyricularia oryzae, read-out: RCB control value (C.V.)
Rhizoctonia solani AG-1 = test: Fungicidal activity against rice sheath blight (RSB) disease, control value; settings: Rhizoctonia solani, AG1, in Oryza sativa, read-out: RSB control value (C.V.)
Erysiphae graminis = test: Fungicidal activity against barley powdery mildew (BPM) disease, control value; type: in vivo; settings: Hordeum vulgare, 168 h, barley powdery mildew, read-out: BPM control value (C.V.)
Botrytis cinerae = test: Fungicidal activity against cucumber gray mold rot (CGM) disease, control value; type: in vivo; settings: Botrytis, cucumber gray mold rot, read-out: CGM control value (C.V.)
Phytophthora infestans = test: whole plant or invertebrate; type: in vivo; settings: Phytophthora infestans, in Solanum lycopersicum, read-out: TLB control value (C.V.)
Puccinia recondita = test: Fungicidal activity against wheat leaf rust (WLR) disease, control value; type: in vivo; settings: wheat leaf rust, read-out: WLR control value (C.V.)

SMILES | pest or weed control at 2 ppm [1] | pest or weed control at 10 ppm [1] | pest or weed control at 50 ppm [1] | pest or weed control at 100 ppm [1] | pest or weed control at 2 ppm (Rhizoctonia solani AG-1) | pest or weed control at 10 ppm (Rhizoctonia solani AG-1) | pest or weed control at 50 ppm (Rhizoctonia solani AG-1) | pest or weed control at 100 ppm (Rhizoctonia solani AG-1) | pest or weed control at 2 ppm (Erysiphae graminis) | pest or weed control at 10 ppm (Erysiphae graminis) | pest or weed control at 50 ppm (Erysiphae graminis) | pest or weed control at 100 ppm (Erysiphae graminis) | pest or weed control at 100 ppm (Botrytis cinerae) | pest or weed control at 100 ppm (Phytophthora infestans) | pest or weed control at 2 ppm (Puccinia recondita) | pest or weed control at 10 ppm (Puccinia recondita) | pest or weed control at 50 ppm (Puccinia recondita) | pest or weed control at 100 ppm (Puccinia recondita) | pest or weed control at 2 ppm (Phytophthora infestans) | pest or weed control at 50 ppm (Phytophthora infestans) | also measured
CNC(=O)/C(=N/OC)c1ccccc1COc1ccc(C=C(Cl)Cl)cc1Cl [Example 40, (E)-2-(2-((2-chloro-4-(2,2-dichlorovinyl)phenoxy)methyl)phenyl)-2-methoxyimino-N-methylacetamide] | 100% | 100% | 100% | 100% | 100% | 100% | 100% | 100% | 100% | 100% | 100% | 100% | 10% | 30% | 100% | 100% | 100% | 100% |  |  | 
CO/N=C(/C(=O)OC)c1ccccc1COc1ccc(C=C(Cl)Cl)cc1C [Example 41, methyl-(E)-2-(2-((4-(2,2-dichlorovinyl)-2-methylphenoxy)methyl)phenyl)-2-methoxyiminoacetate] | 100% | 100% | 100% | 100% | 100% | 100% | 100% | 100% | 100% | 100% | 100% | 100% | 90% | 100% | 100% | 100% | 100% | 100% | 100% | 100% | pest or weed control at 50 ppm (Botrytis cinerae; 50 ppm): 75%; pest or weed control at 10 ppm (Phytophthora infestans): 100%
CNC(=O)/C(=N/OC)c1ccccc1COc1ccc(C=C(Cl)Cl)cc1C [Example 42, (E)-2-(2-((4-(2,2-dichlorovinyl)-2-methylphenoxy)methyl)phenyl)-2-methoxyimino-N-methylacetamide] | 100% | 100% | 100% | 100% | 100% | 100% | 100% | 100% | 100% | 100% | 100% | 100% | 0% | 95% | 100% | 100% | 100% | 100% |  | 70% | 
CO/N=C(/C(=O)OC)c1ccccc1COc1cccc(C=C(Cl)Cl)c1Cl [Example 43, methyl-(E)-2-(2-((2-chloro-3-(2,2-dichlorovinyl)phenoxy)methyl)phenyl)-2-methoxyiminoacetate] | 90% | 99% | 100% | 100% | 90% | 100% | 100% | 100% | 100% | 100% | 100% | 100% | 0% | 100% | 100% | 100% | 100% | 100% | 100% | 100% | pest or weed control at 10 ppm (Phytophthora infestans): 100%
CNC(=O)/C(=N/OC)c1ccccc1COc1cccc(C=C(Cl)Cl)c1Cl [Example 44, (E)-2-(2-((2-chloro-3-(2,2-dichlorovinyl)phenoxy)methyl)phenyl)-2-methoxyimino-N-methylacetamide] | 100% | 100% | 100% | 100% | 90% | 100% | 100% | 100% | 100% | 100% | 100% | 100% | 10% | 100% | 100% | 100% | 100% | 100% | 95% | 100% | pest or weed control at 10 ppm (Phytophthora infestans): 100%
CO/N=C(/C(=O)OC)c1ccccc1COc1ccc(C)cc1C=C(Cl)Cl [Example 45, methyl-(E)-2-(2-((2-(2,2-dichlorovinyl)-4-methylphenoxy)methyl)phenyl)-2-methoxyiminoacetate] | 100% | 100% | 100% | 100% | 100% | 100% | 100% | 100% | 100% | 100% | 100% | 100% | 35% | 100% | 100% | 100% | 100% | 100% | 92% | 100% | pest or weed control at 10 ppm (Phytophthora infestans): 98%
CNC(=O)/C(=N/OC)c1ccccc1COc1ccc(C)cc1C=C(Cl)Cl [Example 46, (E)-2-(2-((2-(2,2-dichlorovinyl)-4-methylphenoxy)methyl)phenyl)-2-methoxyimino-N-methylacetamide] | 95% | 100% | 100% | 100% | 98% | 100% | 100% | 100% | 100% | 100% | 100% | 100% | 30% | 100% | 100% | 100% | 100% | 100% | 96% | 100% | pest or weed control at 10 ppm (Phytophthora infestans): 100%
CO/N=C(/C(=O)OC)c1ccccc1COc1cc(C=C(Cl)Cl)ccc1OC [Example 47, methyl-(E)-2-(2-((5-(2,2-dichlorovinyl)-2-methoxyphenoxy)methyl)phenyl)-2-methoxyiminoacetate] | 80% | 99% | 100% | 100% | 95% | 100% | 100% | 100% | 100% | 100% | 100% | 100% | 55% | 100% | 100% | 100% | 100% | 100% | 85% | 100% | pest or weed control at 10 ppm (Phytophthora infestans): 95%
CNC(=O)/C(=N/OC)c1ccccc1COc1cc(C=C(Cl)Cl)ccc1OC [Example 48, (E)-2-(2-((5-(2,2-dichlorovinyl)-2-methoxyphenoxy)methyl)phenyl)-2-methoxyimino-N-methylacetamide] | 90% | 100% | 100% | 100% | 95% | 98% | 100% | 100% | 99% | 100% | 100% | 100% | 50% | 100% | 100% | 100% | 100% | 100% | 70% | 100% | pest or weed control at 10 ppm (Phytophthora infestans): 99%

Source: patent publication US8410302B2, “Methoxyimino compounds and fungicide composition comprising same” (Kyung Nong Corporation, priority 2007, dated 2013)
